Common to all, as to assay type: cell-based
Test [1] concerns bifidobacteria (I-2494). Nature of the test: Development of the population of bifidobacteria in the model preserved at 4° C., filtered or autoclaved stimulant (Example 4). The note with it: 50 mg/l; for population of bifidobacteria D 10: 10 days after placing in pots; for population of bifidobacteria D 10 / population of bifidobacteria D 24 / population of bifidobacteria D 29 / population of bifidobacteria D 0: preserved at 4° C.; for population of bifidobacteria D 24: 24 days after placing in pots; for population of bifidobacteria D 29: 29 days after placing in pots; for population of bifidobacteria D 0: placing in pots (packaging); for effect of the supply on the population of bifidobacteria: filtered or autoclaved, relative to control. On the procedure: The impact of sterilization by filtration or thermization of the cysteine and methionine is assessed (final concentration used: 50 mg/l). The solutions are either filtered at 0.2 μm or autoclaved for 5 minutes at 121° C. then frozen in the form of beads in liquid nitrogen. Constitution of the model: Milex skimmed milk powder supplied by Arla food: 120 g […] Heat treatment: pasteurization for 30 minutes at 95° C. in a bubbling water bath Cysteine: supplier Sigma. The solution is prepared at 500 g/l, filtered on a 0.2 μm Nalgène filter unit or sterilized at 121° C. for 5 minutes by an autoclave controlled by temperature probe ([…] France S.A., reference KL 60/101). This solution is injected sterilely into the pasteurized model for a final concentration of 50 mg/l. […] The solution is prepared at 300 g/l; the filtration or sterilization treatment is identical to that carried out for the cysteine solution. This solution is injected sterilely into the pasteurized model for a final concentration of 50 mg/l. The seeding doses are referred to in Table 3 below. The seeding is 5.10^6 CFU/ml of Streptococcus thermophilus and 5.10^6 CFU/ml of Lactobacillus bulgaricus. The monitoring of the population of bifidobacteria in the model preserved at 4° C. as a function of the various conditions above is represented in FIG. 3 as well as in Table 4 below: The reference time D0 corresponds to placing in pots (packaging).

For test [2], the system named is ferment comprising Streptococcus thermophilus (CNCM: I-1630), Lactobacillus delbrueckii ssp. bulgaricus (CNCM: I-1632, I-1519) and Bifidobacterium animalis ssp …. Nature of the test: Monitoring of the acidification of the milk product model by the ferment of Example 1. To be noted: vitamin C 0.5 g/l, cysteine 50 mg/l; for acidification curve compared with control / vitamin C curve: FIG. 1; for Ta = latency time / Tmax = time at Vmax / TpH 4.8 = time to arrive at pH 4.8 / TpH 5 = time to arrive at pH 5 / TpH 5.5 = time to arrive at pH 5.5 / Vmax = maximum rate / pH 0 = pH at start of fermentation / pHm = pH at the maximum acidification rate: milk model at 37° C. On the procedure:
A ferment comprising Streptococcus thermophilus (CNCM: I-1630)+Lactobacillus delbreckii ssp. bulgaricus (CNCM: I-1632)+Lactobacillus delbrueckii ssp. bulgaricus (CNCM: I-1519)+Bifidobacterium animalis ssp lactis (CNCM: I-2494) is used.
The growth of bifidobacteria in milk is measured in the presence of a solution of vitamin C (0.5 g/l) completely reducing the oxygen in the medium, and a solution of cysteine (50 mg/l).
Constitution of the product model:
Milex skimmed milk powder supplied by Arla food: 120 g
Water: quantity sufficient for 1 kg
A heat treatment is carried out involving pasteurization for 30 minutes at 95° C. in a bubbling water bath.
The cysteine is supplied by Sigma. The solution is prepared at 500 g/l, filtered on a 0.2 μm Nalgène filter unit. This solution is used injected sterilely into the pasteurized model for a final concentration of 50 mg/l.
The vitamin C is supplied by Sigma. The solution is prepared at 100 g/l, filtered on a 0.2 μm Nalgène filter unit (cat. 156-4020, Nalge Europe Ltd, Belgium). This solution is used injected sterilely into the pasteurized model for a final concentration of 0.5 g/l.
The seeding is 5.10^6 CFU/ml of Streptococcus thermophilus and 5.10^6 CFU/ml of Lactobacillus bulgaricus.
The monitoring of the acidification of the model at 37° C. is represented in Table 2 below as well as in FIG. 1.

Test [3] has as its system Bifidobacterium animalis ssp lactis (CNCM: I-2494). Nature of the test: Growth of bifidobacteria in milk, quantity at the end of the fermentation (Example 1). To be noted: milk model at 37° C.; vitamin C 0.5 g/l, cysteine 50 mg/l. On the procedure: A ferment comprising Streptococcus thermophilus (CNCM: I-1630)+Lactobacillus delbreckii ssp. bulgaricus (CNCM: I-1632)+Lactobacillus delbrueckii ssp. bulgaricus (CNCM: I-1519)+Bifidobacterium animalis ssp lactis (CNCM: I-2494) is used. The growth of bifidobacteria in milk is measured in the presence of a solution of vitamin C (0.5 g/l) completely reducing the oxygen in the medium, and a solution of cysteine (50 mg/l). A heat treatment is carried out involving pasteurization for 30 minutes at 95° C. in a bubbling water bath. The cysteine is supplied by Sigma. The solution is prepared at 500 g/l, filtered on a 0.2 μm Nalgène filter unit. This solution is used injected sterilely into the pasteurized model for a final concentration of 50 mg/l. The vitamin C is supplied by Sigma. The solution is prepared at 100 g/l, filtered on a 0.2 μm Nalgène filter unit (cat. 156-4020, Nalge Europe Ltd, Belgium). This solution is used injected sterilely into the pasteurized model for a final concentration of 0.5 g/l. The seeding is 5.10^6 CFU/ml of Streptococcus thermophilus and 5.10^6 CFU/ml of Lactobacillus bulgaricus.

For test [4] the test system is unchanged. Nature of the test: Population of bifidobacteria in milk models (stirred yogurts) during preservation at 10° C. (Example 2). On the procedure: A ferment comprising Streptococcus thermophilus (CNCM: I-2272)+Streptococcus thermophilus (CNCM: I-2773)+Streptococcus thermophilus (CNCM: I-2130)+Lactobacillus delbrueckii ssp. bulgaricus (CNCM: I-1519)-+Bifidobacterium animalis ssp lactis (CNCM: I-2494) is used. “Milk models” are constituted by standard stirred yogurts comprising the ferment described above. The use of 0.2 μm-filtered cysteine was assessed in the “milk models” in proportions comprised from 5 mg/l to 50 mg/l (preferably from 5 to 20 mg/l). For the bifidobacteria counting method, reference may be made to M. Grand et al., Quantitative analysis and molecular identification of bifidobacteria strains in probiotic milk products, Eur. Food Res. Technol. 217:90-92 (2003).

The test system of test [5] is ferment comprising Streptococcus thermophilus (CNCM: I-2272, I-2773, I-2130), Lactobacillus delbrueckii ssp. bulgaricus (CNCM: I-1519) and Bifidobacterium …. The test is described as follows: Acidification kinetics of milk with the ferment of Example 2 (Example 3). To be noted: 15 mg/L cysteine versus control without cysteine. An excerpt:
A ferment comprising Streptococcus thermophilus (CNCM: I-2272)+Streptococcus thermophilus (CNCM: I-2773)+Streptococcus thermophilus (CNCM: I-2130)+Lactobacillus delbrueckii ssp. bulgaricus (CNCM: I-1519)-+Bifidobacterium animalis ssp lactis (CNCM: I-2494) is used. The ferment described in Example 2 is used.

The subject of test [6] is Bifidobacterium. Nature of the test: Population of bifidobacteria during preservation at 10° C., cysteine incorporated before pasteurization (Example 5). The protocol: This concentration was assessed on direct incorporation in the model and pasteurized composition (95° C., 30 minutes). The monitoring of the population of bifidobacteria in the product model during preservation at 10° C. is represented in FIG. 4.

Test [7] has as its system bifidobacteria. Nature of the test: Populations of bifidobacteria in products with increasing doses of cysteine (Example 7). On the procedure:
Different products were prepared with increasing doses of cysteine (see the table below). The control was the standard dairy product containing the ferment.

The structures appear in SMILES notation.

As for `N[C@@H](CS)C(=O)O` [Autoclaved cysteine, L-cysteine], in test [1], the “population of bifidobacteria D 10” value was 5.2.10^8 CFU/ml, the “population of bifidobacteria D 24” value is recorded as 2.8.10^8 CFU/ml, the “population of bifidobacteria D 29” value is 1.7.10^8 CFU/ml and the “population of bifidobacteria D 0” value was 3.1 · 10^8 CFU/ml.
With `CSCCC(N)C(=O)O` [Autoclaved methionine, L-methionine ((S)-2-amino-4-methylthio-butyric acid)], in test [1], the “population of bifidobacteria D 10” value is 3.5 · 10^8 CFU/ml, the “population of bifidobacteria D 24” value was 3.5 · 10^8 CFU/ml, the “population of bifidobacteria D 29” value was 2.8 · 10^8 CFU/ml and the “population of bifidobacteria D 0” value is listed as 3.4.10^8 CFU/ml.
For `O=C1O[C@H]([C@@H](O)CO)C(O)=C1O` [Vitamin C, vitamin C, reference compound], in test [2], the “acidification curve compared with control / vitamin C curve” value is reported as “virtually indistinguishable from the control acidification curve”, the “Ta = latency time” value is 86 min, the “Tmax = time at Vmax” value is 3.07 h and the “TpH 4.8 = time to arrive at pH 4.8” value is recorded as 479 minutes. In test [2], the “TpH 5 = time to arrive at pH 5” value was determined as 391 minutes, the “TpH 5.5 = time to arrive at pH 5.5” value was determined as 260 minutes, the “Vmax = maximum rate” value is recorded as −0.0079 pH units/minute and the “pH 0 = pH at start of fermentation” value was determined as 6.5. The “pHm = pH at the maximum acidification rate” value in test [2] turned out to be 5.96. For the same compound, the “D 0 CFU/ml = quantity of bifidobacteria obtained at the end of the fermentation” value in test [3] is reported as 1.02 · 10^8 CFU/ml.
As to `N[C@@H](CS)C(=O)O` [cysteine, L-cysteine], in test [4] (0.0015% i.e. 15 mg/l of filtered cysteine), the “Bifidobacterium I-2494 population after 28 days of preservation at 10° C.” value is recorded as 2.8.10^8 CFU/ml. Besides, in test [4] (dose of 0.0015% cysteine), the Bifidobacterium population was > 2.10^8 CFU/ml. In addition, the “population of bifidobacteria after preservation for up to 28 days at 10° C.” value in test [4] (highest concentration of L cysteine (range 5 mg/l to 50 mg/l)) is recorded as “remains stable”. For the same compound, in test [4] (highest concentration of L cysteine (range 5 mg/l to 50 mg/l), 0.2 μm-filtered), the “population of bifidobacteria at D+24 h” value is recorded as 3.10^8 CFU/ml. Moreover, in test [4] (lowest concentration of L cysteine (range 5 mg/l to 50 mg/l)), the “population of bifidobacteria at D+24 h” value is given as 1.10^8 CFU/ml. Also, in test [2], the “acidification curve compared with control / vitamin C curve” value is “differs from the acidification curve in the presence of vitamin C”, the “Ta = latency time” value was 90 min, the “Tmax = time at Vmax” value was found to be 3.47 h and the “TpH 4.8 = time to arrive at pH 4.8” value was 417 minutes. Besides, in test [2], the “TpH 5 = time to arrive at pH 5” value was 354 minutes, the “TpH 5.5 = time to arrive at pH 5.5” value was found to be 248 minutes, the “Vmax = maximum rate” value was −0.01046 pH units/minute and the “pH 0 = pH at start of fermentation” value turned out to be 6.6. Further, in test [2], the “pHm = pH at the maximum acidification rate” value was determined as 5.82. Moreover, the “effect of the supply on the population of bifidobacteria” value in test [1] is given as “increased”. Besides, in test [1] (listed as Filtered cysteine), the “population of bifidobacteria D 10” value is given as 4.3 · 10^8 CFU/ml, the “population of bifidobacteria D 24” value was 4.0 · 10^8 CFU/ml and the “population of bifidobacteria D 0” value is 5.1.10^8 CFU/ml. For the same compound, the “D 0 CFU/ml = quantity of bifidobacteria obtained at the end of the fermentation” value in test [3] is 2.79 · 10^8 CFU/ml. The “effect on the overall acidification kinetics of milk” value in test [5] was “absence of the effect”. Further, in test [6] (12 mg/l cysteine incorporated before pasteurization (95° C., 30 minutes)), the “population of Bifidobacterium after 44 days of preservation at 10° C.” value was “above 1.4.10^8 CFU/ml”. Besides, the “population of Bifidobacterium at D1 (24 hours of storage)” value in test [6] (12 mg/l cysteine incorporated before pasteurization (95° C., 30 minutes), 10° C.) was 2.4.10^8 CFU/ml. Further, the “population of Bifidobacterium on addition of 0.2 μm filtered cysteine to the model” value in test [6] (filtered cysteine, not heat treated (comparison)) is on record as 3.10^8 CFU/ml. Further, in test [7] (Test 1, cysteine 0.008%), the “Populations (CFU/mL) T0” value worked out at 4.40E+06 CFU/mL and the “Populations (CFU/mL) Tf 495 min” value came out at 1.70E+08 CFU/mL. Besides, in test [7] (Test 2, cysteine 0.005%), the “Populations (CFU/mL) T0” value was 4.70E+06 CFU/mL, the “Populations (CFU/mL) T pH 4.8” value was 1.90E+08 CFU/mL and the “Populations (CFU/mL) Tf 495 min” value is 2.40E+08 CFU/mL. Moreover, in test [7] (Test 3, cysteine 0.002%), the “Populations (CFU/mL) T0” value came to 3.30E+06 CFU/mL, the “Populations (CFU/mL) T pH 4.8” value is on record as 2.50E+08 CFU/mL and the “Populations (CFU/mL) Tf 495 min” value is recorded as 3.10E+08 CFU/mL. In addition, in test [7] (Test 5, cysteine 0.001%), the “Populations (CFU/mL) T0” value turned out to be 3.10E+06 CFU/mL, the “Populations (CFU/mL) T pH 4.8” value is listed as 1.50E+08 CFU/mL and the “Populations (CFU/mL) Tf 495 min” value is listed as 2.40E+08 CFU/mL. For the same compound, in test [7] (Test 6, cysteine 0.0005%), the “Populations (CFU/mL) T0” value is 3.90E+06 CFU/mL, the “Populations (CFU/mL) T pH 4.8” value came out at 1.10E+08 CFU/mL and the “Populations (CFU/mL) Tf 495 min” value was 1.20E+08 CFU/mL.
With `CSCCC(N)C(=O)O` [methionine, L-methionine ((S)-2-amino-4-methylthio-butyric acid)], the “effect of the supply on the population of bifidobacteria” value in test [1] is “increased”. For the same compound, in test [1] (listed as Filtered methionine), the “population of bifidobacteria D 10” value was 6.2 · 10^8 CFU/ml, the “population of bifidobacteria D 24” value was 3.4 · 10^8 CFU/ml, the “population of bifidobacteria D 29” value is recorded as 2.3 · 10^8 CFU/ml and the “population of bifidobacteria D 0” value was 4.0.10^8 CFU/ml.
